{"source": "patent US12215389B2", "about": "“Compositions for detecting epigenetic modifications” (EXACT SCIENCES CORPORATION, priority 2007, dated 2025)", "key": {"[1]": {"test_system": "NDRG4 expression in RKO and HCT116 cell lines", "assay": "NDRG4 re-expression by real-time RT-PCR after treatment with DAC and TSA", "format": "cell-based, human", "settings": "combined treatment, 1 μM DAC and 300 nM TSA, cyclophilin reference gene", "description": "Colon cancer cell lines LS174T, HCT116, HT29, RKO, CaCo2, Colo205, SW48 and SW480 were used for MSP, bisulfite sequencing and real time (reexpression) RT-PCR ([…] and 300 nM TSA).\nTotal RNA isolation was isolated by use of the Rneasy Mini kit (Qiagen) cDNA synthesis using the Iscript cDNA synthesis kit (Bio-Rad). Quantitative real-time reverse transcription-PCR was done using SYBR Green PCR Master Mix (Applied Biosystems, Nieuwekerk a/d IJssel, the Netherlands). Primers and PCR conditions are specified in Table 21.\nExpression of the NDRG4 gene was determined by real-time reverse-transcription PCR (RT-PCR). […] Relative expression of NDRG4 after treatment with DAC and TSA was compared to untreated cell lines. Cyclophilin was used as a reference gene for expression normalisation."}, "[2]": {"test_system": "NDRG4 mRNA in CRC cell lines HCT116 and RKO", "assay": "NDRG4 reexpression following inhibition of DNA methyltransferases (quantitative RT-PCR)", "format": "cell-based, human", "settings": "1 μM DAC", "description": "CRC cell lines HT29, SW480, Caco2, Colo205, RKO, LS174T, HCT116 and SW480 were cultured in DMEM (Invitrogen) supplemented with 10% heat-inactivated fetal calf serum (Hyclone). To investigate reexpression of NDRG4 following inhibition of DNA methyltransferases, HCT116 and RKO were treated with 1 μM DAC (Sigma).\nTotal RNA from cell lines, normal mucosa and tumor tissue was isolated using the Rneasy Mini kit (Qiagen) following the manufacturers instructions. Possible genomic DNA contaminations were removed by DNAse treatment with the RNase-free DNAse set (Qiagen). cDNA synthesis using the Iscript cDNA synthesis kit (Bio-Rad) was performed. Quantitative real-time (RT-PCR) was performed using SYBR Green PCR master mix (Applied Biosystems, Nieuwekerk a/d IJssel, The Netherlands). Realtime RT-PCR mixes were composed of 1× iQ SYBR Green Supermix (Bio-Rad), 400 nM of the forward (SEQ ID NO: 3 5′-[…]-3′) and reverse (SEQ ID NO: 4 5′-[…]-3′) primer and cDNA corresponding to 30 ng total RNA per reaction. As standard control, primers targeted against cyclophilin A were used. Reactions were run using the iCycler (Bio-Rad) for 40 cycles at a Tm of 60° C. The comparative Ct method was used to calculate differences in mRNA expression. […] Next, the fold difference in expression was calculated as 2-^[delta][delta]Ct, with [delta][delta]Ct=[delta]Ct,sample1-[delta]Ct,control. […]"}, "[3]": {"test_system": "tumor endothelial cells", "settings": "DAC and TSA together, Hellebrekers, Melotte et al. 2007; cited from earlier work"}, "[4]": {"test_system": "NDRG1 expression in cancer cells", "settings": "Guan et al. 2000, Bandyopadhyay et al. 2004; cited from earlier work"}, "[5]": {"test_system": "methylated gene promoters in plasma DNA", "assay": "Real-time MSP on plasma DNA", "set-up": "species or system human", "settings": "for % Specificity (all 59 controls), plasma set 1: plasma training set 1", "description": "10 ml of blood was obtained per individual using EDTA Vacutainer™ tubes. Individuals with no suspicious findings, adenomas or carcinomas based on colonoscopy were enrolled in the present study. Within 4 hrs from the blood drawing, the plasma fraction was separated from the cell fraction by centrifugation at 1500 g for 15 min (4° C.). The plasma was transferred to new tubes and once again centrifuged (1500 g, 15 min, 4° C.), after which the supernatant was transferred to new tubes and stored at −80° C. until further use. Samples were shipped on dry ice.\nDNA isolation from plasma samples (1.2 to 6 ml) was performed using an upscaled phenol-chloroform DNA isolation method using the 15 ml of Heavy Phase lock Gel tubes (PLG tubes) (Eppendorf, cat #0032 005.152) or alternatively the ChargeSwitch® gDNA 1 ml serum kit from Invitrogen (cat #CS11040).\nPlasma samples were thawed and 1/10 volume of 10× buffer (240 mM EDTA (pH=8.0), 750 mM NaCl), 1/10 volume of 10% SDS and 5 μl of Proteinase K (20 mg/ml stock solution) per 1 ml of sample (e.g. 15 μl for 3 ml of sample) was added to each plasma sample. This mixture was incubated overnight at 48° C. at constant shaking (200 RPM).\nSubsequently the PLG tube was centrifuged at 2500 RCF for 3 min, sample mixture and approximately the same volume of phenol/chloroform (Invitrogen, cat #15593049) were added to it. This solution was briefly vortexed, mixed for 10 min using a tube rocker at room temperature and centrifuged for 5 min at 2500 RCF. In case the retrieved sample volume was ≤4 ml, an equal volume of phenol/chloroform was added. The upper aqueous layer was phenol/chloroform-treated for a second time.\nDNA was precipated from the upper aqueous layer by adding 5 μl glycogen, 1/10 volume of 7.5 M Ammonium Acetate and 2-2.5 volumes of cold (−20° C.) 100% ethanol. Tubes were gently inverted and incubated at −20° C. for at least 1 h, followed by a centrifugation step at 17000 RCF for 30 min (4° C.). Ethanol was carefully removed by pipetting. Pellets were washed with 2 ml freshly prepared 70% ethanol, vortexed gently and submitted to a centrifugation step at 17000 RCF for 15 min at 4° C. After careful removal of the remaining ethanol, pellets were air dried and resuspended in 45 μl of LoTE pH 8.0. The isolated DNA is stored at −80° C. until further processing.\nThe complete content of DNA isolated in above procedure was subjected to sodium bisulfite treatment (BT) using the EZ-96 DNA Methylation kit from Zymo Research (Cat #D5003) performed on a pipetting robot (Tecan Freedom EVOII, Roma, Liha, Mca, Te-Vacs). Briefly, 45 μl of plasma DNA sample was mixed with 5 μl of M-Dilution Buffer (provided in kit) and incubated at 37° C. for 15 min shaking at 1100 RPM. This mixture was further incubated with 100 μl of diluted CT conversion reagent (provided in kit) shaking at 70° C. for 3 hours (protected from light). Subsequently the modified DNA was desalted and desulfonated according to manufacturer's instructions and eluted in either 40 μl or 20 μl of Tris-HCl 1 mM pH8.0, depending on the applied concentration procedure. The eluted material was stored at −80° C. until further processing.\n2.4 μl of the modified DNA was added to a PCR mix (total volume 12 μl) containing home-made buffer solution (final concentrations are summarized: 16.6 mM (NH4)2SO4, 67 mM Tris (pH 8.8), 6.7 mM MgCl2, 10 mM β-mercaptoethanol), dNTPs (5 mM; Amersham Biosciences cat #27-2035-02), methylation specific forward primer (6 ng), methylation specific reverse primer (18 ng), molecular beacon (0.16 μM) and Jumpstart DNA Taq polymerase (0.4 units; Sigma Cat #D9307).\nA standard curve was included (9.6×10^5—9.6 copies) to determine copy numbers of unknown samples by interpolation of their Ct values to the standard curve.\nDNA was isolated following the upscaled phenol-chloroform procedure; subsequently the whole DNA sample was modified as described above."}, "[6]": {"test_system": "methylated gene promoters in FFPE tissue DNA", "assay": "Real-time MSP on colon tissue samples", "set-up": "species or system human", "description": "Real-time MSP was applied on a 7900HT fast real-time PCR system (Applied Biosystems). 2.4 μl of the modified DNA (equivalent to 2.5 μg unconverted DNA) was added to a PCR mix (total volume 12 μl) containing buffer (16.6 mM (NH4)2SO4, 67 mM Tris (pH 8.8), 6.7 mM MgCl2, 10 mM β-mercaptoethanol), dNTPs (5 mM), forward primer (6 ng), reverse primer (18 ng), molecular beacon (0.16 μM), BSA (0.1 μg), and Jumpstart DNA Taq polymerase (0.4 units; Sigma Aldrich). Cycle program used was as follows: 5 minutes 95° C., followed by 45 cycles of 30 seconds 95° C., 30 seconds 57° C. (51° C. for APC), and 30 seconds 72° C., followed by 5 minutes 72° C. A standard curve (2×106—20 copies) was included to determine copy numbers of unknown samples by interpolation of their Ct values to the standard curve.\nMarker selection in colon tissue: Based on re-expression, 224 different gene assays representing 145 gene promotors were tested on the Base5 methylation profiling platform (data not shown, see reference 1 for details). The 37 most differentially methylated gene sequences assessing 29 gene promoters were validated on retrospectively collected tumors from 65 colorectal cancer patients (all stages) and 74 distant resection ends (histopathologically normal) using real-time MSP. Several markers reliably detected CRC in those tissue samples (data not shown). The results were confirmed on an independent test set containing 39 tissue controls (non-cancerous), 34 carcinomas and 16 adenomas. Several combinations of the tested markers reliably detected CRC with high specificity and sensitivity.\nThe ten best performing markers GATA5, GATA4, SFRP1, SFRP2, APC, MGMT, NDRG4, OSMR, JPH3 and ADAM23 were validated with primer sets and beacon probes as specified in Table 24. In addition to the colon test genes, the independent reference gene β-Actin (ACT) was also measured. The ratios between the colon test genes and ACT were calculated, and are the test result of the assay.\nMarker candidates identified by re-expression were screened using 37 real-time methylation specific PCR (real-time MSP) assays. These assays were used to assess the methylation status of 29 gene promoters in 293 formalin-fixed paraffin-embedded (FFPE) tissue samples collected from various clinics. Samples included 99 carcinomas of various stages, 16 adenomas, 63 samples from patients with cancer other than CRC (20 breast [stages I-III], 22 bladder [stages I-III], 21 lung [stages I and II]), 39 samples from patients with no evidence of cancer and 76 distant resection ends (histopathologically normal) from CRC patients. These samples were divided into training and independent test sets, and used to select the gene methylation assays best able to discriminate between cancerous and non-cancerous samples. The training set included retrospectively collected tumors from 65 colorectal cancer patients (all stages) and 74 distant resection ends. Using the 10 best performing genes the results were confirmed on an independent test set containing 59 samples from patients with cancer other than CRC, 39 non-cancerous controls and 50 cancer cases (34 carcinomas and 16 adenomas).\nThe individual performance of the 10 best performing tissue markers OSMR, SFRP1, GATA4, SFRP2, NDRG4, ADAM23, GATA5, MGMT, APC and JPH3 is shown in FIG. 7, when the analytical cut-off was set to give 100% specificity, except for JPH3 where a specificity of 95% was obtained (based on the 39 non-cancerous controls). In addition to the colon test genes, the independent reference gene β-Actin (ACT) was also measured. The ratios between the colon test genes and ACT were calculated, and are the test result of the assay."}, "[7]": {"settings": "16 adenoma tissue samples vs 39 controls"}, "[8]": {"settings": "34 carcinoma tissue samples vs 39 controls"}}, "data": [{"compound": "Nc1ncn([C@H]2C[C@H](O)[C@@H](CO)O2)c(=O)n1", "note": "[DAC, 5-aza-2′-deoxycytidine]", "values": [{"measurement": "Relative expression of NDRG4 after treatment with DAC and TSA compared to untreated cell lines", "setting": "[1]", "result": "reactivation of NDRG4 expression"}, {"measurement": "Endogenous NDRG4 mRNA levels after treatment with DAC", "setting": "[2]", "result": "significant increased"}, {"measurement": "81 genes downregulated in tumor endothelial cells after DAC and TSA treatment", "setting": "[3]", "result": "reexpressed"}, {"measurement": "Expression of NDRG1 after DAC treatment", "setting": "[4]", "result": "upregulated"}]}, {"compound": "CC(/C=C/C(=O)NO)=C\\[C@@H](C)C(=O)c1ccc(N(C)C)cc1", "note": "[TSA, trichostatin A]", "values": [{"measurement": "Relative expression of NDRG4 after treatment with DAC and TSA compared to untreated cell lines", "setting": "[1]", "result": "reactivation of NDRG4 expression"}, {"measurement": "81 genes downregulated in tumor endothelial cells after DAC and TSA treatment", "setting": "[3]", "result": "reexpressed"}]}, {"compound": "OSMR (DNA TTTGGTCGGGGTAGGAGTAGC; listed as DNA, chemistry not given here)", "values": [{"measurement": "% Specificity (all 59 controls), plasma set 1", "setting": "[5]", "result": 100, "unit": "%"}, {"measurement": "% Sensitivity adenomas plasma set 2: increased plasma equivalent of DNA per real-time MSP assay", "setting": "[5]; plasma training set 2", "result": 2, "unit": "%"}, {"measurement": "% Specificity (all 89 controls), plasma set 2: increased plasma equivalent of DNA per real-time MSP assay", "setting": "[5]; plasma training set 2", "result": 99, "unit": "%"}]}, {"compound": "SFRP2 (DNA GGGTCGGAGTTTTTCGGAGTTGCGC; listed as DNA, chemistry not given here)", "values": [{"measurement": "Sensitivity", "setting": "[6]; [7]", "result": 81, "unit": "%"}, {"measurement": "Specificity", "setting": "[6]; [7]", "result": 100, "unit": "%"}, {"measurement": "Sensitivity", "setting": "[6]; [8]", "result": 68, "unit": "%"}, {"measurement": "Specificity", "setting": "[6]; [8]", "result": 100, "unit": "%"}, {"measurement": "Specificity (%)", "setting": "[6]; 50 cases (adenoma + carcinoma) vs 39 controls, tissue", "result": 100, "unit": "%"}, {"measurement": "Sensitivity (%)", "setting": "[6]; 50 cases (adenoma + carcinoma) vs 39 controls, tissue, first cut off ratio", "result": 72, "unit": "%"}, {"measurement": "Sensitivity (%)", "setting": "[6]; 50 cases (adenoma + carcinoma) vs 39 controls, tissue, second cut off ratio, between ( )", "result": "(84) %"}, {"measurement": "% Specificity (all 59 controls), plasma set 1", "setting": "[5]", "result": 97, "unit": "%"}]}]}
